Experimental data published in patent publication US9617244B2, “Antibacterial quinoline derivatives” (JANSSEN PHARMACEUTICA NV, priority 2012, dated 2017).
Values after ≈ are worked out from the molar mass of the structure shown.

Experiments:
[1] = system: Staphylococcus aureus (ATCC29213); assay: In-vitro anti-bacterial activity, microtitre plate assay, IC90 determination (non-mycobacterial strains); type: cell-based; settings: 90% inhibitory concentration for bacterial growth, resazurin fluorescence; for IC90: Staphylococcus aureus, ATCC29213, 24 h, read-out: IC90 STA B29213; for IC90 STA B29213: 24 hours
Summary of the method: (§1)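 Growth inhibition measured fluorometrically with resazurin (530/590 nm) after overnight 37 °C incubation under normal atmosphere. Bacteria added at roughly 100 TCID50 per well in Mueller-Hinton broth to five-fold compound dilution series; IC90 reported in μg/ml.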

[2] = system: Streptococcus pneumoniae (ATCC6305); assay: as above; type: cell-based; settings: Streptococcus pneumoniae, ATCC6305, 24 h, 90% inhibitory concentration for bacterial growth, resazurin fluorescence, read-out: IC90 SPN 6305
Summary of the method: as §1

[3] = system: Mycobacterium smegmatis (ATCC607); assay: In-vitro anti-bacterial activity against strain M. Smegmatis ATCC607; type: cell-based; settings: 90% inhibitory concentration for bacterial growth, Alamar Blue fluorescence; for IC90: Mycolicibacterium smegmatis, ATCC607, 48 h, read-out: IC90 MSM 607; for IC90 MSM 607: 48 hours
Summary of the method: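 IC90 (μg/ml) derived from Alamar Blue fluorescence (530/590 nm) after 48 h growth at 37 °C under 5% CO2. About 250 CFU per well in Mueller-Hinton broth faced five-fold serial compound dilutions in BSA-containing wells.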

Row | SMILES | IC90 [1] | IC90 [2] | IC90 [3] | IC90 STA B29213 [1] | melting point | IC90 MSM 607 [3]
1 | COc1nc2ccc(Br)cc2cc1C(c1cccc(Cl)c1)C1(O)CCNC(Cc2ccccc2)C1 (stereo not drawn) [Compound 35] | 2.76 µg/mL (≈ 5 µM) | 4.37 µg/mL (≈ 7.92 µM) | 2.19 µg/mL (≈ 3.97 µM) |  |  | 
2 | O=c1[nH]c2ccc(Br)cc2cc1C(c1ccc(Cl)cc1)C1(O)CCNC(Cc2ccc(F)c(F)c2)C1 (stereo not drawn) [Compound 40] | 3.42 µg/mL (≈ 5.96 µM) | 6.83 µg/mL (≈ 11.9 µM) | 1.93 µg/mL (≈ 3.36 µM) |  |  | 
3 | C=CC1CC(O)(C(c2ccc(Cl)cc2)c2cc3cc(Br)ccc3nc2OC)CCN1 (stereo not drawn) [Compound 372] |  |  |  | 6.14 µg/mL (≈ 12.6 µM) | 194 °C | 3.08 µg/mL (≈ 6.31 µM)
4 | C=CC1CC(O)(C(c2ccc(Cl)cc2)c2cc3cc(Br)ccc3nc2OC)CCN1 (stereo not drawn) [Compound 373] |  |  |  | 3.08 µg/mL (≈ 6.31 µM) | 193 °C | 3.08 µg/mL (≈ 6.31 µM)
5 | C=CC1CC(O)(C(c2ccc(Cl)cc2)c2cc3cc(Br)ccc3nc2OC)CCN1 (stereo not drawn) [Compound 374] |  |  |  | 3.08 µg/mL (≈ 6.31 µM) | 162 °C | 1.23 µg/mL (≈ 2.52 µM)
6 | COc1nc2ccc(S(=O)(=O)C(C)C)cc2cc1C(c1ccc(Cl)cc1)C1(O)CCNC(Cc2ccccc2)C1 (stereo not drawn) [Compound 386] |  |  |  | 3.65 µg/mL (≈ 6.3 µM) | 125 °C | 2.90 µg/mL (≈ 5.01 µM)
7 | COc1nc2ccc(S(=O)(=O)C(C)C)cc2cc1C(c1ccc(Cl)cc1)C1(O)CCNC(Cc2ccccc2)C1 (stereo not drawn) [Compound 387] |  |  |  | 14.55 µg/mL (≈ 25.1 µM) | 204 °C | 7.29 µg/mL (≈ 12.6 µM)
8 | COc1nc2ccc(S(C)(=O)=O)cc2cc1C(c1ccc(Cl)cc1)C1(O)CCNC(Cc2ccc(F)cc2)C1 (stereo not drawn) [Compound 388] |  |  |  | 1.80 µg/mL (≈ 3.16 µM) | 103 °C | 3.59 µg/mL (≈ 6.31 µM)
9 | COc1nc2ccc(S(C)(=O)=O)cc2cc1C(c1ccc(Cl)cc1)C1(O)CCNC(Cc2ccc(F)cc2)C1 (stereo not drawn) [Compound 389] |  |  |  | 7.16 µg/mL (≈ 12.6 µM) | 128 °C | 7.16 µg/mL (≈ 12.6 µM)
10 | COc1nc2ccc(S(C)(=O)=O)cc2cc1C(c1ccc(Cl)cc1)C1(O)CCNC(Cc2ccc(F)cc2)C1 (stereo not drawn) [Compound 390] |  |  |  | 14.30 µg/mL (≈ 25.1 µM) | 170 °C | 11.36 µg/mL (≈ 20 µM)
11 | COc1nc2ccc(S(C)(=O)=O)cc2cc1C(c1ccc(Cl)cc1)C1(O)CCNC(Cc2ccc(F)cc2)C1 (stereo not drawn) [Compound 391] |  |  |  | 3.59 µg/mL (≈ 6.31 µM) | 120 °C | 1.80 µg/mL (≈ 3.16 µM)
12 | C=CCC1CNCCC1(O)C(c1ccc(Cl)cc1)c1cc2cc(Br)ccc2nc1OC (stereo not drawn) [Compound 392] | 6.32 µg/mL (≈ 12.6 µM) |  | 3.17 µg/mL (≈ 6.32 µM) |  | 162 to 164 °C | 
13 | C=CCC1CNCCC1(O)C(c1ccc(Cl)cc1)c1cc2cc(Br)ccc2nc1OC (stereo not drawn) [Compound 393] |  |  |  | 10.01 µg/mL (≈ 19.9 µM) | 159 to 161 °C | 6.32 µg/mL (≈ 12.6 µM)
14 | C=CCC1CNCCC1(O)C(c1cccc(Cl)c1)c1cc2cc(Cl)ccc2nc1OC (stereo not drawn) [Compound 395] |  |  |  | 5.76 µg/mL (≈ 12.6 µM) | 150 to 152 °C | 2.89 µg/mL (≈ 6.32 µM)
15 | COc1nc2ccc(S(C)(=O)=O)cc2cc1C(c1ccc(Cl)cc1)C1(O)CCNCC1(C)C (stereo not drawn) [Compound 397] | > 12.3 µg/mL |  | > 12.3 µg/mL |  | 180 °C | 
16 | COc1nc2ccc(F)cc2cc1C(c1ccc(SC)cc1)C1(O)CCNC(c2ccc(F)cc2C)C1 (stereo not drawn) [Compound 406] | 3.29 µg/mL (≈ 6.32 µM) |  |  |  | 206 °C | 2.61 µg/mL (≈ 5.01 µM)
17 | COc1nc2ccc(F)cc2cc1C(c1ccc(S(C)(=O)=O)cc1)C1(O)CCNC(c2ccc(F)cc2C)C1 (stereo not drawn) [Compound 417] | > 13.9 µg/mL |  | > 13.9 µg/mL |  | 150 °C | 
18 | COc1nc2ccc(F)cc2cc1C(c1ccc(S(C)(=O)=O)cc1)C1(O)CCNC(c2ccc(F)cc2C)C1 (stereo not drawn) [Compound 419] |  |  |  | 11.03 µg/mL (≈ 20 µM) | 154 °C | 11.03 µg/mL (≈ 20 µM)
19 | COc1nc2ccc(Cl)cc2cc1C(c1ccc(Cl)cc1)C1(O)CCNCC1C (stereo not drawn) [Compound 423] |  |  |  | 5.43 µg/mL (≈ 12.6 µM) | 174 °C | 3.43 µg/mL (≈ 7.95 µM)
20 | COc1nc2ccc(Br)cc2cc1C(c1ccccc1)C1(O)CCNCC1C (stereo not drawn) [Compound 425] | > 11.1 µg/mL |  | > 11.1 µg/mL |  | 125 °C | 
21 | COc1nc2ccc(Br)cc2cc1C(c1ccccc1)C1(O)CCNCC1C (stereo not drawn) [Compound 426] |  |  |  | >11.09 µg/mL | 174 °C | >11.09 µg/mL
22 | COc1nc2ccc(Cl)cc2cc1C(c1ccc(Cl)cc1)C1(O)CCNCC1Cc1ccccn1 (stereo not drawn) [Compound 433] |  |  | 4.04 µg/mL (≈ 7.95 µM) | 6.40 µg/mL (≈ 12.6 µM) | 114 °C | 
23 | COc1nc2ccc(Cl)cc2cc1C(c1ccc(Cl)cc1)C1(O)CCNCC1Cc1ccccn1 (stereo not drawn) [Compound 434] |  |  |  | 3.21 µg/mL (≈ 6.31 µM) | 197 °C | 3.21 µg/mL (≈ 6.31 µM)
24 | COc1nc2ccc(Cl)cc2cc1C(c1ccc(Cl)cc1)C1(O)CCNC(CO)C1 (stereo not drawn) [Compound 435] | 5.63 µg/mL (≈ 12.6 µM) |  | 3.99 µg/mL (≈ 8.92 µM) |  | 140 °C | 
25 | O=c1[nH]c2ccc(Cl)cc2cc1C(c1ccc(Cl)cc1)C1(O)CCNC(CO)C1 (stereo not drawn) [Compound 446] |  |  | 5.46 µg/mL (≈ 12.6 µM) | 10.89 µg/mL (≈ 25.1 µM) | 210 °C | 
26 | COc1nc2ccc(S(C)(=O)=O)cc2cc1C(c1ccc(Cl)cc1)C1(O)CCNCC1Cc1cccc[n+]1[O-] (stereo not drawn) [Compound 447] |  |  |  | >14.27 µg/mL | 234 °C | >14.27 µg/mL
27 | COc1nc2ccc(S(C)(=O)=O)cc2cc1C(c1ccc(Cl)cc1)C1(O)CCNCC1Cc1cccc[n+]1[O-] (stereo not drawn) [Compound 448] |  |  |  | >14.27 µg/mL | 182 °C | >14.27 µg/mL
28 | COc1nc2ccc(Cl)cc2cc1C(c1ccc(Cl)cc1)C1(O)CCNCC1F (stereo not drawn) [Compound 449] |  |  |  | 5.48 µg/mL (≈ 12.6 µM) | 190 °C | 2.75 µg/mL (≈ 6.32 µM)
29 | COc1nc2ccc(Cl)cc2cc1C(c1ccc(Cl)cc1)C1(O)CCNCC1F (stereo not drawn) [Compound 450] |  |  |  | 8.69 µg/mL (≈ 20 µM) | 200 °C | 4.35 µg/mL (≈ 9.99 µM)

Other lines, results leading:

Row | IC90 [1] | IC90 [2] | IC90 [3] | IC90 STA B29213 [1] | melting point | IC90 MSM 607 [3] | SMILES
30 |  |  |  | 5.48 µg/mL (≈ 12.6 µM) | 110 °C | 2.18 µg/mL (≈ 5.01 µM) | COc1nc2ccc(Cl)cc2cc1C(c1ccc(Cl)cc1)C1(O)CCNCC1F (stereo not drawn) [Compound 451]
31 |  |  |  | 9.75 µg/mL (≈ 22.4 µM) | 114 °C | 4.35 µg/mL (≈ 9.99 µM) | COc1nc2ccc(Cl)cc2cc1C(c1ccc(Cl)cc1)C1(O)CCNCC1F (stereo not drawn) [Compound 452]
32 | 5.48 µg/mL (≈ 12.6 µM) |  |  |  | 210 °C | 2.75 µg/mL (≈ 6.32 µM) | COc1nc2ccc(Cl)cc2cc1C(c1ccc(Cl)cc1)C1(O)CCNCC1F (stereo not drawn) [Compound 453]
33 |  |  |  | 10.94 µg/mL (≈ 25.1 µM) | 186 °C | 4.35 µg/mL (≈ 9.99 µM) | COc1nc2ccc(Cl)cc2cc1C(c1ccc(Cl)cc1)C1(O)CCNCC1F (stereo not drawn) [Compound 454]
34 |  |  |  | 7.74 µg/mL (≈ 17.8 µM) | 118 °C | 5.48 µg/mL (≈ 12.6 µM) | COc1nc2ccc(Cl)cc2cc1C(c1ccc(Cl)cc1)C1(O)CCNCC1F (stereo not drawn) [Compound 455]
35 |  |  |  | 10.94 µg/mL (≈ 25.1 µM) | 115 °C | 10.94 µg/mL (≈ 25.1 µM) | COc1nc2ccc(Cl)cc2cc1C(c1ccc(Cl)cc1)C1(O)CCNCC1F (stereo not drawn) [Compound 456]
36 |  |  |  | 13.14 µg/mL (≈ 22.4 µM) | 211 °C | 3.70 µg/mL (≈ 6.3 µM) | COc1nc2ccc(S(C)(=O)=O)cc2cc1C(c1ccc(Cl)cc1)C1(O)CCNC(c2ccc3ccccc3c2)C1 (stereo not drawn) [Compound 459]
37 |  |  |  | 3.70 µg/mL (≈ 6.3 µM) | 197 °C | 1.86 µg/mL (≈ 3.17 µM) | COc1nc2ccc(S(C)(=O)=O)cc2cc1C(c1ccc(Cl)cc1)C1(O)CCNC(c2ccc3ccccc3c2)C1 (stereo not drawn) [Compound 460]
38 |  |  |  | 2.62 µg/mL (≈ 4.46 µM) | 208 °C | 1.47 µg/mL (≈ 2.5 µM) | COc1nc2ccc(S(C)(=O)=O)cc2cc1C(c1ccc(Cl)cc1)C1(O)CCNC(c2ccc3ccccc3c2)C1 (stereo not drawn) [Compound 461]
39 |  |  |  | 1.86 µg/mL (≈ 3.17 µM) | 192 °C | 0.93 µg/mL (≈ 1.58 µM) | COc1nc2ccc(S(C)(=O)=O)cc2cc1C(c1ccc(Cl)cc1)C1(O)CCNC(c2ccc3ccccc3c2)C1 (stereo not drawn) [Compound 462]
40 |  |  |  | 14.75 µg/mL (≈ 25.1 µM) | 160 °C | 2.34 µg/mL (≈ 3.99 µM) | COc1nc2ccc(S(C)(=O)=O)cc2cc1C(c1ccc(Cl)cc1)C1(O)CCNC(c2ccc3ccccc3c2)C1 (stereo not drawn) [Compound 463]
41 |  |  |  | 1.47 µg/mL (≈ 2.5 µM) | 154 °C | 1.17 µg/mL (≈ 1.99 µM) | COc1nc2ccc(S(C)(=O)=O)cc2cc1C(c1ccc(Cl)cc1)C1(O)CCNC(c2ccc3ccccc3c2)C1 (stereo not drawn) [Compound 464]
42 |  |  |  | 5.87 µg/mL (≈ 10 µM) | 168 °C | 2.62 µg/mL (≈ 4.46 µM) | COc1nc2ccc(S(C)(=O)=O)cc2cc1C(c1ccc(Cl)cc1)C1(O)CCNC(c2ccc3ccccc3c2)C1 (stereo not drawn) [Compound 465]
43 |  |  |  | 3.70 µg/mL (≈ 6.3 µM) | 188 °C | 1.47 µg/mL (≈ 2.5 µM) | COc1nc2ccc(S(C)(=O)=O)cc2cc1C(c1ccc(Cl)cc1)C1(O)CCNC(c2ccc3ccccc3c2)C1 (stereo not drawn) [Compound 466]
44 | 3.21 µg/mL (≈ 6.31 µM) |  | 2.55 µg/mL (≈ 5.02 µM) |  | 148 °C |  | COc1nc2ccc(Cl)cc2cc1C(c1ccc(Cl)cc1)C1(O)CCNC(Cc2cccnc2)C1 (stereo not drawn) [Compound 467]
